Here are results for twelve compounds from publication PMC10674894 (Viruses, 2023).

The structures appear in SMILES notation. Values joined by “and” are separate entries in the source; they are usually repeats but may differ in a detail not shown here. Equal entries are not always repeated. Where two headings read alike, the source gives them in different places. Where only a bound is given, the exact number is not on record here.

One data set concerns CHIKV-E2 protein. Briefly: Western blot of CHIKV E2 protein. It is filed as cell-based, chikungunya virus. The conditions noted are these: 18 hpi, compared to virus control. A general note: Immunoblotting shows a protein as a band on a membrane.
The next data set has as its system CHIKV DRDE-07. Briefly: In vitro screening against CHIKV (CPE inhibition and MTT cell viability). It is filed as cell-based, chikungunya virus. As to conditions: for CPE / % Cell viability: Table S1, CHIKV-infected Vero cells; for CPE: arbitrary score of cytopathic effect at >48 hpi; for % Cell viability: MTT assay.
Data set [1] relates to CHIKV. In words: Cytopathic effect inhibition and cell viability dose-response assay. It is filed as cell-based, chikungunya virus. On the technique in general: Cytopathic effects are the visible damage that an infection or toxin causes in cultured cells.
The nature of data set [2]: Cytotoxicity MTT assay in Vero cells (MNTD, CC50). As to conditions: African green monkey. The class given is cell-based, African green monkey. For orientation: Tetrazolium dyes change colour on reduction, which living cells bring about.
The test system of the next data set is Vero cells. In words: Cytotoxicity MTT assay in Vero cells (MNTD, CC50). It is filed as cell-based, African green monkey.
The test system of data set [3] is CHIKV. Briefly: Plaque assay, CHIKV. It is filed as cell-based, chikungunya virus. The conditions noted are these: 300 μM, MOI 0.1.
The test system of data set [4] is CHIKV. Briefly: Immunofluorescence assay, CHIKV E2 mAb. It is filed as cell-based, chikungunya virus.
For data set [5], the system named is RRV T48 strain. Briefly: Immunofluorescence and MTT cell viability assays, RRV. It is filed as cell-based, Ross River virus. As to conditions: 300 µM, 36 hpi.
Data set [6] deals with CHIKV. Briefly: Mode of inhibition (time of addition), MTT cell viability. The class given is cell-based, chikungunya virus. As to conditions: for viability at 300 µM: Chikungunya virus.
In data set [7] the test system is RRV T48 strain. In words: Plaque assay, RRV. It is filed as cell-based, Ross River virus. The conditions noted are these: 300 µM; for RRV titer: MOI 0.1; for percent reduction in virus titer: with respect to virus control.
Where [8] appears, read: maximum nontoxic dose in Vero cells, MTT.

For `Nc1nc(N)c2cc(F)ccc2n1` [DCR 137, 6-fluoro-quinazoline-2,4-diamine], the CHIKV-E2 protein expression result in the data set with CHIKV-E2 protein is “significant decrease”. Also, in the data set on CHIKV DRDE-07, the CPE result is listed as “+ (<30%)”. In the data set on CHIKV [1] (150 and 300 µM, CHIKV-infected Vero cells), the “cytopathic effect (microscopy)” value was “delayed and dose-dependent CPE”. Besides, the EC50 with CHIKV [1] (Chikungunya virus, Vero, CHIKV replication in Vero cells, post-treatment, MTT at 48 hpi) was approximately 37 µM. The compound further had a CC50 at 72 h in data set [2] (Vero cells, MTT) of more than 1100 µM. The viability at 72 h in [2] (uninfected Vero cells at MNTD, read-out: cell viability at MNTD) was approximately 90%. The MNTD with Vero cells (Table S1, Vero cells) came out at 300 µM; in the data set on Vero cells (setting [8]), 300 µM. In the data set on Vero cells (Vero cells), the MNTD value is > 300 μM and ~ 312 μM. Also, in the data set with Vero cells (Vero cells, 312.5 µM, 48 hpi, microscopy), the “cytotoxicity (cell morphology)” value is reported as “No significant cytotoxicity”. Besides, the CHIKV titer was 1.8 × 10^2 PFU/mL in the data set with CHIKV [3] (24 hpi, virus control 2.8 × 10^6) and 1.9 × 10^5 PFU/mL in the data set with CHIKV [3] (48 hpi, virus control 9.1 × 10^8). Besides, the “viral fluorescence (immunofluorescence)” value in the data set on CHIKV [4] (300 µM, CHIKV MOI 0.1, 36 hpi) is on record as “complete abrogation of viral fluorescence”. Also, the “protection compared to ribavirin” value in the data set with CHIKV [4] (CHIKV, immunofluorescence, ribavirin positive control) is “higher protection”. For the same compound, in the data set on RRV T48 strain [5], the “green fluorescence (RRV immunofluorescence)” value is reported as “barely detectable”. Also, the viability at 300 µM in the data set with CHIKV [6] (2 h, read-out: cell viability, post-treatment) was more than 95%; in the data set with CHIKV [6] (read-out: cell viability, pre-treatment), 15%; with CHIKV [6] (read-out: cell viability, simultaneous treatment) it was 29%. In addition, the “effect of pre-treatment or simultaneous treatment on viral infection” value in the data set with CHIKV [6] (pre-treatment 24 h or simultaneous 1 h, CHIKV MOI 1) is “no inhibitory effects”. Besides, the RRV titer with RRV T48 strain [7] (24 hpi, untreated 3.0 × 10^6) is recorded as 1.1 × 10^2 PFU/mL; in the data set on RRV T48 strain [7] (48 hpi, untreated 1.2 × 10^8) it was 1.7 × 10^5 PFU/mL. Moreover, the “percent reduction in virus titer” value in the data set with RRV T48 strain [7] (24 hpi) is 99.99%; with RRV T48 strain [7] (48 hpi), 99.85%.

On to `CC1(C)CC(=O)C2=C(C1)OC1=C(C(=O)CC(C)(C)C1)C2c1ccc([N+](=O)[O-])cc1` [DCR126, 3,3,6,6‐tetramethyl‐9‐(4‐nitrophenyl)‐2,3,4,5,6,7,8,9‐octahydro‐1H‐xanthene‐1,8‐dione], for which the “% Cell viability” value with CHIKV DRDE-07 (72 hpi) is 17.99%. Moreover, the CPE result in the data set with CHIKV DRDE-07 was “++++ (>60% (++++))”. In the data set with Vero cells (Table S1, Vero cells), this compound came in with an MNTD of 15.6 µM.

With `C#CCOC(=O)C1=C(C)NC(=O)NC1c1ccc(OCC)cc1` (stereo not drawn) [DCR94, prop-2-yn-1-yl 4-(4-ethoxyphenyl)-6-methyl-2-oxo-1,2,3,4-tetrahydropyrimidine-5-carboxylate], the “% Cell viability” value with CHIKV DRDE-07 (72 hpi) was determined as 19.5%. For the same compound, the CPE result in the data set with CHIKV DRDE-07 was “++++ (>60% (++++))”. In the data set with Vero cells (Table S1, Vero cells), this compound gave an MNTD of 198.83 µM.

For the compound `C#CCOC(=O)C1=C(C)NC(=O)NC1c1ccc(Cl)cc1` (stereo not drawn) [DCR88, prop-2-yn-1-yl 4-(4-chlorophenyl)-6-methyl-2-oxo-1,2,3,4-tetrahydropyrimidine-5-carboxylate], in the data set with CHIKV DRDE-07 (72 hpi), the “% Cell viability” value is given as 11.05%. Further, the CPE entry in the data set on CHIKV DRDE-07 is “++++ (>60% (++++))”. The MNTD in the data set on Vero cells (Table S1, Vero cells) is listed as 205.1 µM.

As for `COc1cc(/C=N/NC(=O)c2ccncc2)cc(OC)c1OC` [DCR42, (E)-N'-(3,4,5-trimethoxybenzylidene)isonicotinohydrazide], the “% Cell viability” value in the data set with CHIKV DRDE-07 (72 hpi) is 12.22%. The CPE result in the data set on CHIKV DRDE-07 is on record as “++++ (>60% (++++))”. The MNTD in the data set on Vero cells (Table S1, Vero cells) is 31.25 µM.

On to `O=C(CCl)NNC(=O)c1ccncc1` [DCR12, N'-(2-chloroacetyl)isonicotinohydrazide], for which the “% Cell viability” value in the data set on CHIKV DRDE-07 (72 hpi) is listed as 16.34%. Besides, the CPE result with CHIKV DRDE-07 is given as “++++ (>60% (++++))”. Moreover, the MNTD with Vero cells (Table S1, Vero cells) amounted to 31.25 µM.

Take `O=C(c1cccnc1)n1nc(-c2ccc(O)cc2)cc1-c1cccc([N+](=O)[O-])c1` [DCR63, 4-[5-(3-nitrophenyl)-1-(pyridine-3-carbonyl)-1H-pyrazol-3-yl]phenol]: the “% Cell viability” value in the data set on CHIKV DRDE-07 (72 hpi) is reported as -4.2%. The CPE result in the data set with CHIKV DRDE-07 was “++++ (>60% (++++))”. Also, in the data set with Vero cells (Table S1, Vero cells), the MNTD was 31.25 µM.

`Cc1ccc(C2NC(=O)Oc3ccc4ccccc4c32)cc1` (stereo not drawn) [DCR66, 1-(4-methylphenyl)-1H,2H,3H-naphtho[1,2-e][1,3]oxazin-3-one]: in the data set with CHIKV DRDE-07 (72 hpi), the “% Cell viability” value came out at 12.24%. Moreover, the CPE result in the data set with CHIKV DRDE-07 is on record as “++++ (>60% (++++))”. For the same compound, the MNTD in the data set on Vero cells (Table S1, Vero cells) amounted to 54 µM.

In the case of `O=C(NNC(=O)c1ccncc1)c1ccccc1` [DCR9, N'-benzoylisonicotinohydrazide], the “% Cell viability” value with CHIKV DRDE-07 (72 hpi) is on record as 9.92%. Further, in the data set on CHIKV DRDE-07, the CPE entry was “++++ (>60% (++++))”. This compound registered an MNTD with Vero cells (Table S1, Vero cells) of 31.25 µM.

Turning to `Nc1nc(N)c2cc(F)c(F)cc2n1` [DCR 138, 6,7-difluoro-quinazoline-2,4-diamine], in the data set with CHIKV DRDE-07 (CHIKV-infected Vero cells treated at MNTD, 72 hpi, MTT, cell control + DMSO = 100%), the “Cell Viability” value amounted to 51%. Also, the CPE entry with CHIKV DRDE-07 is “++ (50-30% (++))”. Moreover, the MNTD in the data set with Vero cells (Table S1, Vero cells) came to 250 µM; in the data set with Vero cells (setting [8]), 250 µM.

Take `CC1=C(C(=O)OCCN(C)C)C(c2ccc(O)cc2)NC(=O)N1` (stereo not drawn) [DCR110, 2-(dimethylamino)ethyl 4-(4-hydroxyphenyl)-6-methyl-2-oxo-1,2,3,4-tetrahydropyrimidine-5-carboxylate]: the “% Cell viability” value in the data set on CHIKV DRDE-07 (72 hpi) was 12.01%. Besides, in the data set with CHIKV DRDE-07, the CPE result is listed as “++++ (>60% (++++))”. The compound further had an MNTD in the data set on Vero cells (Table S1, Vero cells) of 62.5 µM.

With `O=C(NNC(=O)c1ccc(Cl)cc1)c1ccncc1` [DCR11, N'-(4-chlorobenzoyl)isonicotinohydrazide], the “% Cell viability” value in the data set with CHIKV DRDE-07 (72 hpi) turned out to be 22.85%. In addition, the CPE entry in the data set with CHIKV DRDE-07 was “++++ (>60% (++++))”. Also, the MNTD in the data set with Vero cells (Table S1, Vero cells) came out at 31.25 µM.

One may read the EC50 as the concentration at which the effect is half-maximal. In general, CC50 refers to the concentration at which the toxic effect on the cells reaches its halfway point. In general, viability refers to a per cent measure of how many cells are alive, often set against a control.
